{
  "source": "paper PMC3969779",
  "about": "(Journal of molecular biology, 2013)",
  "key": {"[1]": {"biological_target": "T1, BRPF1 bromodomain (Homo sapiens, UniProt P55201)", "T1 sequence (P55201 629-742)": "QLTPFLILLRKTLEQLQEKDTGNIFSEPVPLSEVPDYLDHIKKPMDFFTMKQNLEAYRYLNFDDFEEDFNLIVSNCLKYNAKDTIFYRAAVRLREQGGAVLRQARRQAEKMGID", "assay": "NMR titration", "format": "binding"}, "[2]": {"biological_target": "T1, BRPF1 bromodomain", "assay": "Isothermal titration calorimetry", "format": "binding"}, "[3]": {"biological_target": "T2, Histone H4K12ac peptide (4-17) (Homo sapiens)", "T2 chain": "GKGGKGLGK(Ac)GGAKR", "assay": "NMR titration"}, "[4]": {"biological_target": "T3, Histone H4K8ac peptide (4-17) (Homo sapiens, H4 K8 acetylated)", "T3 chain": "GKGGKGLGKGGAKR", "assay": "NMR titration"}, "[5]": {"biological_target": "T4, Histone H2AK5ac peptide (1-12) (Homo sapiens)", "T4 chain": "SGRGK(Ac)QGGKARA", "assay": "NMR titration"}, "[6]": {"biological_target": "T5, Histone H3K14ac peptide (8-19) (Homo sapiens)", "T5 chain": "RKSTGGK(Ac)APRKQ", "assay": "NMR titration"}},
  "note": "Ends that are not written are not given here.",
  "data": [
    {"molecule": "CC(=O)NCCCC[C@H](NC(=O)CNC(=O)CNC(=O)[C@@H](NC(=O)[C@H](CO)NC(=O)[C@H](CCCCN)NC(=O)[C@@H](N)CCCNC(=N)N)[C@@H](C)O)C(=O)N[C@@H](C)C(=O)N1CCC[C@H]1C(=O)N[C@@H](CCCNC(=N)N)C(=O)N[C@@H](CCCCN)C(=O)N[C@@H](CCC(N)=O)C(N)=O", "note": "[H3K14ac (8-19)]", "values": [
      {"measurement": "Kd", "setting": "[1]", "result": "597 ± 53", "unit": "µM"},
      {"measurement": "Kd", "setting": "[2]", "result": "626 ± 27", "unit": "µM"}
    ]},
    {"molecule": "CC(=O)NCCCC[C@H](NC(=O)CNC(=O)CNC(=O)[C@H](CCCCN)NC(=O)CN)C(=O)NCC(=O)N[C@@H](CC(C)C)C(=O)NCC(=O)N[C@@H](CCCCN)C(=O)NCC(=O)NCC(=O)N[C@@H](C)C(=O)N[C@@H](CCCCN)C(=O)N[C@@H](CCCNC(=N)N)C(N)=O", "note": "[H4K8ac (4-17)]", "values": [
      {"measurement": "Kd", "setting": "[1]", "result": "697 ± 57", "unit": "µM"}
    ]},
    {"molecule": "CC(=O)NCCCC[C@H](NC(=O)CNC(=O)[C@H](CC(C)C)NC(=O)CNC(=O)[C@H](CCCCN)NC(=O)CNC(=O)CNC(=O)[C@H](CCCCN)NC(=O)CN)C(=O)NCC(=O)NCC(=O)N[C@@H](C)C(=O)N[C@@H](CCCCN)C(=O)N[C@@H](CCCNC(=N)N)C(N)=O", "note": "[H4K12ac (4-17)]", "values": [
      {"measurement": "Kd", "setting": "[1]", "result": "74 ± 18", "unit": "µM"},
      {"measurement": "Kd", "setting": "[2]", "result": "86.5 ± 9.1", "unit": "µM"}
    ]},
    {"molecule": "SGRGK(Ac)QGGKARA-NH2 [H2AK5ac (1-12)]", "values": [
      {"measurement": "Kd", "setting": "[1]", "result": "57 ± 4", "unit": "µM"},
      {"measurement": "Kd", "setting": "[2]", "result": "48.5 ± 1.5", "unit": "µM"}
    ]},
    {"molecule": "BRPF1 bromodomain 629-742 (protein) QLTPFLILLRKTLEQLQEKDTGNIFSEPVPLSEVPDYLDHIKKPMDFFTMKQNLEAYRYLNFDDFEEDFNLIVSNCLKYNAKDTIFYRAAVRLREQGGAVLRQARRQAEKMGID", "values": [
      {"measurement": "Kd", "setting": "[3]", "result": 74, "unit": "µM"},
      {"measurement": "Kd", "setting": "[4]", "result": 697, "unit": "µM"},
      {"measurement": "Kd", "setting": "[5]", "result": 57, "unit": "µM"},
      {"measurement": "Kd", "setting": "[6]", "result": 597, "unit": "µM"}
    ]}
  ]
}
